{"source": "patent US20110263510A1", "about": "“Methods of Inhibiting Cell Death or Inflammation in a Mammal” (priority 2006, published 2011)", "key": {"[1]": {"test_system": "skeletal muscle ischemia-reperfusion injury", "conditions": "Iwata et al., Blood 100:2077, 2002; cited from earlier work"}, "[2]": {"test_system": "hind-limbs of C57BL/6 mice, ischemia-reperfusion injury", "assay": "hind-limb tourniquet ischemia (90 minutes) and reperfusion (3 hours), plasma creatine kinase", "format": "in vivo, mouse", "conditions": "pretreatment", "procedure": "Skeletal muscle was made ischemic by applying a tourniquet to the hind-limbs of C57BL/6 mice for 90 minutes, then removing the tourniquet and allowing reperfusion for an additional 3 hours. Mice were treated with active peptide 1 (SEQ ID NO:17) or peptide 2 (SEQ ID NO:18) or peptide 3 (SEQ ID NO:19), or with the scrambled (control) peptide (SEQ ID NO:20). Peptide-1 (SEQ ID NO:17) is from the BH4 region of Bcl-2. Peptide-2 (SEQ ID NO:18) is from the first alpha helix of A1/Bfl-1. Peptide-3 (SEQ ID NO:19) is from the BH4 region of Bcl-XL. The amino acid sequences of peptide 1 (SEQ ID NO:17), peptide 2 (SEQ ID NO:18), peptide 3 (SEQ ID NO:19), and the scrambled (control) peptide (SEQ ID NO:20) are set forth in Table 1.\nAt the end of the 3 hours of reperfusion the mice were killed, and blood was taken for determination of plasma creatine kinase (CK) concentration. The CK concentration was used as an indicator of muscle injury. Elevated levels of CK indicate higher levels of muscle injury. […] The CK concentration for peptide 1 (SEQ ID NO:17) treated mice was 19,020+/−5481 IU/L (n=12) compared with control peptide (SEQ ID NO:20) where CK concentration was 60,530+/−5759 IU/L (n=12). The CK concentration for peptide 2 (SEQ ID NO:18) treated mice was 33,860+/−5997 IU/L (n=11) compared with control peptide (SEQ ID NO:20) where CK concentration was 69,430+/−11,170 IU/L (n=12). The CK concentration for peptide 3 (SEQ ID NO:19) treated mice was 49,500+/−3,901 IU/L (n=5) compared with control peptide (SEQ ID NO:20) where CK concentration was 80,880+/−11,430 IU/L (n=6)."}, "[3]": {"test_system": "C57BL/6 mice subjected to hind limb ischemia and reperfusion", "assay": "hind limb ischemia (aortic cross-clamp, 90 minutes) and reperfusion (3 hours), plasma creatine kinase", "format": "in vivo", "conditions": "1 microgram/mouse intraperitoneally the day before, 12 mice per group", "procedure": "Mouse skeletal muscle was made ischemic by cross-clamping the aorta distal to the renal artery for 90 minutes, then the clamp was removed and hind limb reperfusion continued for 3 hours. At the end of reperfusion (3 hours after clamp removal) the mice were killed, and the concentration of plasma creatine kinase (CK) was measured and used as an indicator of injury (creatine kinase concentration increases as a result of skeletal muscle injury).\nBlood from EμT-Bcl-2 mice and their littermate control mice was drawn into heparin and plasma was extracted by centrifugation. One ml of plasma from EμT-Bcl-2 mice, or one ml of plasma from littermate control mice, was injected into the peritoneum of C57BL/6 mice the day before the mice were subjected to 90 minutes of ischemia and 3 hours of reperfusion as described in Example 1 herein. Blood was drawn from the mice and plasma CK concentration was determined at the end of reperfusion.\nC57BL/6 mice were injected intraperitoneally with 1 μg per mouse of recombinant human Bcl-2 (rBcl-2) (SEQ ID NO:15) or 1 μg per mouse of recombinant human ubiquitin (rUbiquitin), or the vehicle solution for rBcl-2 the day before the mice were subjected to hind limb ischemia (90 minutes) and reperfusion (180 minutes) as described in Example 1. […]"}, "[4]": {"test_system": "previously ischemic muscle of mice", "assay": "tourniquet ischemia/reperfusion, skeletal muscle tissue viability by MTT", "format": "in vivo, mouse", "conditions": "measured the following day", "text": "The ability of a Bcl protein to inhibit cell death in a mammal, and/or to inhibit inflammation in a mammal concurrent with or after the onset of a condition expected to lead to cell death or inflammation, can be assessed, for example, in a mammal subjected to ischemia-reperfusion injury. As used herein, “determining,” “measuring,” and “assessing,” and “assaying” are used interchangeably and include both quantitative and qualitative determinations. For example, one or more of the following markers and/or assays can be used to assess the ability of a Bcl protein to inhibit cell death and/or inflammation in a mammal subjected to ischemia-reperfusion injury: 1. […] The viability of tissue subjected to I/R was measured using 3-(4,5-dimethylthiazol-2-yl)-2,5-diphenyl tetrazolium (MTT) (Ferrera et al., J Mol Cell Cardiol 25:1091, 1993). […]\nAnesthetized mice were subjected to 90 minutes of tourniquet ischemia using a hemorrhoid ligator followed by reperfusion and were treated at various times by a subcutaneous injection of 1 microgram of either rhA1/Bfl-1 or rhBim, a pro-apoptotic Bcl-2 family member that lacks a BH4 or BH4-like domain (O'Connor et al., EMBO J. 17:384, 1998). The following day, mice were killed, the previously ischemic muscle removed, and tissue viability measured using 3-(4,5-dimethylthiazol-2-yl)-2,5-diphenyl tetrazolium (MTT). […]"}, "[5]": {"conditions": "experiment peptide 2 (n=11) versus control peptide (n=12)"}, "[6]": {"conditions": "experiment peptide 3 (n=5) versus control peptide (n=6)"}, "[7]": {"conditions": "experiment peptide 1 (n=12) versus control peptide (n=12)"}}, "note": "Ends that are not written are not given here. Peptide text beside a SMILES is read from it. * marks the point of attachment. Cbz = O=C(OCc1ccccc1)*; CH2F = FC*", "data": [{"molecule": "CC(NC(=O)C(NC(=O)OCc1ccccc1)C(C)C)C(=O)NC(CC(=O)O)C(=O)CF", "note": "(stereo not drawn) [z-VAD] (Cbz-Val-Ala-Asp-CH2F; configuration not given here)", "values": [{"measurement": "DNA strand-breaks after extended ischemia and reperfusion of skeletal muscle", "setting": "[1]", "value": "prevents the strand-breaks"}, {"measurement": "plasma CK concentration after extended ischemia and reperfusion of skeletal muscle", "setting": "[1]", "value": "reduces the plasma CK concentration"}]}, {"molecule": "FGYIYRLAQDYLQCVLQIPZPGSGP (FGYIYRLAQDYLQCVLQIPXPGSGP; X not resolved here; also: Z at 20 undefined) [peptide 2, from the first alpha helix of A1/Bfl-1]", "values": [{"measurement": "CK concentration", "setting": "[2]; [5]", "value": "33,860+/−5997 IU/L"}]}, {"molecule": "MSQSNRELVVDFLSYKLSQKGYSWSQF [peptide 3]", "values": [{"measurement": "CK concentration", "setting": "[2]; [6]", "value": "49,500+/−3,901 IU/L"}]}, {"molecule": "TGYDNREIVMKYIHYKLSQRGYEWD [peptide 1]", "values": [{"measurement": "CK concentration", "setting": "[2]; [7]", "value": "19,020+/−5481 IU/L"}]}, {"molecule": "TWHMYGNQRDYIGDRSKIVYKLEYE [control peptide, scrambled (control) peptide, reference compound]", "values": [{"measurement": "CK concentration", "setting": "[2]; [7]", "value": "60,530+/−5759 IU/L"}, {"measurement": "CK concentration", "setting": "[2]; [5]", "value": "69,430+/−11,170 IU/L"}, {"measurement": "CK concentration", "setting": "[2]; [6]", "value": "80,880+/−11,430 IU/L"}]}, {"molecule": "rhA1/Bfl-1: human A1 minus 25 amino acids at the carboxy terminal and addition of 6 histidine on the remaining protein (protein, listed as Homo sapiens) MTDCEFGYIYRLAQDYLQCVLQIPQPGSGPSKTSRVLQNVAFSVQKEVEKNLKSCLDNVNVVSVDTARTLFNQVMEKEFEDGIINWGRIVTIFAFEGILIKKLLRQQIAPDVDTYKEISYFVAEFIMNNTGEWIRQNGGWENGFVKKFEPKSHHHHHH", "values": [{"measurement": "plasma creatine kinase concentration compared to mice injected with rUbiquitin", "setting": "[3]", "value": "significantly (p<0.05) lower"}, {"measurement": "average plasma creatine kinase concentration", "setting": "[3]; 90 min ischemia, 180 min reperfusion", "value": "4,353+/−1284 IU/L"}, {"measurement": "tissue viability normalized to tissue dry weight (MTT), compared to rhBim", "setting": "[4]; 1 microgram subcutaneous 4 hours after the start of reperfusion, FIG. 11", "value": "significantly greater tissue viability"}, {"measurement": "tissue viability normalized to tissue dry weight (MTT), compared to rhBim", "setting": "[4]; 1 microgram subcutaneous at the time of reperfusion, FIG. 10", "value": "greater viability"}]}]}
